Test results taken from US11214594B2, “Antimicrobial peptide having synergistic antibacterial effect with antibiotics on multidrug resistant bacteria, and use thereof” (priority 2016, dated 2022).
In brackets after ≈: the same amount, converted by molar mass. Where a SMILES comes first, the peptide text is derived from it. [ ]: non-standard residue; d: D form.

How the values were obtained:
MRSA 3126 = type: cell-based, Staphylococcus aureus; conditions: 3126
How it was run: (§1)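 Broth microdilution in MH medium: strains diluted to 2×10^6 CFU were mixed with equal volumes of twofold serial peptide dilutions in MH medium. MIC was taken as the lowest peptide concentration preventing bacterial growth.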

MRSA 3114 = type: cell-based, Staphylococcus aureus; conditions: 3114
How it was run: as §1

MDRAB 12036 = type: cell-based, Acinetobacter baumannii
How it was run: as §1

MDRPA 2003 = type: cell-based, Pseudomonas aeruginosa
How it was run: as §1

MDRPA 2002 = type: cell-based, Pseudomonas aeruginosa
How it was run: as §1

S. typhimurium = assay: microbe, parasite or virus in culture; type: cell-based, Salmonella typhimurium
How it was run: as §1

B. subtilis = assay: microbe, parasite or virus in culture; type: cell-based, Bacillus subtilis
How it was run: as §1

MDRST 8009 = type: cell-based, Salmonella typhimurium; conditions: agent alone
How it was run: as §1

[1] = test system: multi-drug resistant bacteria; assay: MIC, summary statements for multi-drug resistant bacteria; type: cell-based
How it was run: as §1

MDREC 1229 [2] = assay: MIC of antibiotic during combined treatment with antimicrobial peptide; type: cell-based, Escherichia coli
How it was run: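 Antibiotic MIC came from antibiotic dilutions added to bacteria (2×10^6 CFU/ml, MH medium) already combined with peptide serially diluted 2:1 from its own MIC. Swapping the roles of the two agents gave the peptide MIC.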

S. aureus = assay: microbe, parasite or virus in culture; type: cell-based, Staphylococcus aureus
How it was run: as §1

MDREC 1238 = type: cell-based, Escherichia coli
How it was run: as §1

MDREC 1229 [3] = assay: microbe, parasite or virus in culture; type: cell-based, Escherichia coli
How it was run: as §1

E. coli = assay: microbe, parasite or virus in culture; type: cell-based, Escherichia coli; conditions: 16 h
How it was run: as §1

[4] = peptide treatment concentration 1 μg/ml
[5] = peptide treatment concentration 2 μg/ml
[6] = peptide treatment concentration 4 μg/ml
[7] = peptide treatment concentration 6 μg/ml
[8] = peptide treatment concentration 8 μg/ml
[9] = peptide treatment concentration 16 μg/ml
[10] = peptide treatment concentration 32 μg/ml
[11] = peptide treatment concentration 64 μg/ml

SMILES: CC[C@H](C)[C@H](NC(=O)[C@H](CCCCN)NC(=O)[C@H](Cc1c[nH]c2ccccc12)NC(=O)[C@@H](N)CCCNC(=N)N)C(=O)N[C@@H](Cc1ccccc1)C(=O)N[C@@H](CCCCN)C(=O)N[C@@H](CCCCN)C(=O)N[C@H](C(=O)N[C@H](CCCCN)C(=O)N[C@@H](CCCCN)C(=O)N[C@@H](CC(C)C)C(=O)N[C@@H](CC(C)C)C(=O)N[C@@H](Cc1c[nH]cn1)C(=O)N[C@@H](CCC(=O)O)C(=O)N[C@@H](C)C(=O)N[C@@H](CCCCN)C(=O)N[C@@H](CCCCN)C(=O)N[C@@H](Cc1c[nH]c2ccccc12)C(N)=O)[C@@H](C)CC [PapMA-20, RWK IFK KIk KLL HEA KKW-NH2] (H-RWKIFKKI[dK]KLLHEAKKW-NH2; N-terminus assumed)
- Minimal inhibitory concentration MIC (MRSA 3126): >128 µg/mL
- Minimal inhibitory concentration MIC (MRSA 3114): >128 µg/mL
- Minimal inhibitory concentration MIC (MDRAB 12036): 16 µg/mL (≈ 6.72 µM)
- Minimal inhibitory concentration MIC (MDRPA 2003): 64 µg/mL (≈ 26.9 µM)
- Minimal inhibitory concentration MIC (MDRPA 2002): 64 µg/mL (≈ 26.9 µM)
- Minimal inhibitory concentration MIC (S. typhimurium): 32 µg/mL (≈ 13.4 µM)
- Minimal inhibitory concentration MIC (B. subtilis): >128 µg/mL
- Minimal inhibitory concentration MIC (MDRST 8009): 64 µg/mL (≈ 26.9 µM)
- Antibacterial activity relative to PapMA-1 [1]: twice to four times higher
- Antibiotic MIC, Erythromycin (MDREC 1229 [2]; [4]): 128 µg/mL
- Antibiotic MIC, Linezolid (MDREC 1229 [2]; [4]): >128 µg/mL
- Antibiotic MIC, Vancomycin (MDREC 1229 [2]; [4]): >128 µg/mL
- Antibiotic MIC, Erythromycin (MDREC 1229 [2]; [5]): 32 µg/mL
- Antibiotic MIC, Linezolid (MDREC 1229 [2]; [5]): 64 µg/mL
- Antibiotic MIC, Vancomycin (MDREC 1229 [2]; [5]): >128 µg/mL
- Antibiotic MIC, Erythromycin (MDREC 1229 [2]; [6]): 8 µg/mL
- Antibiotic MIC, Linezolid (MDREC 1229 [2]; [6]): 16 µg/mL
- Antibiotic MIC, Vancomycin (MDREC 1229 [2]; [6]): 64 µg/mL
- Antibiotic MIC, Erythromycin (MDREC 1229 [2]; [7]): 2 µg/mL
- Antibiotic MIC, Linezolid (MDREC 1229 [2]; [7]): 16 µg/mL
- Antibiotic MIC, Vancomycin (MDREC 1229 [2]; [7]): 16 µg/mL
- Antibiotic MIC, Erythromycin (MDREC 1229 [2]; [8]): 1 µg/mL
- Antibiotic MIC, Linezolid (MDREC 1229 [2]; [8]): 8 µg/mL
- Antibiotic MIC, Vancomycin (MDREC 1229 [2]; [8]): 8 µg/mL
- Antibiotic MIC, Erythromycin (MDREC 1229 [2]; [9]): 0 µg/mL
- Antibiotic MIC, Linezolid (MDREC 1229 [2]; [9]): 0 µg/mL
- Antibiotic MIC, Vancomycin (MDREC 1229 [2]; [9]): 0 µg/mL
- Antibiotic MIC, Erythromycin (MDREC 1229 [2]; [10]): 0 µg/mL
- Antibiotic MIC, Linezolid (MDREC 1229 [2]; [10]): 0 µg/mL
- Antibiotic MIC, Vancomycin (MDREC 1229 [2]; [10]): 0 µg/mL
- Antibiotic MIC, Erythromycin (MDREC 1229 [2]; [11]): 0 µg/mL
- Antibiotic MIC, Linezolid (MDREC 1229 [2]; [11]): 0 µg/mL
- Antibiotic MIC, Vancomycin (MDREC 1229 [2]; [11]): 0 µg/mL
- Minimal inhibitory concentration MIC (S. aureus): >128 µg/mL
- Minimal inhibitory concentration MIC (MDREC 1238): 32 µg/mL (≈ 13.4 µM)
- Minimal inhibitory concentration MIC (MDREC 1229 [3]): 16 µg/mL (≈ 6.72 µM)
- Peptide MIC, peptide alone (MDREC 1229 [3]): 16 µg/mL
- Minimal inhibitory concentration MIC (E. coli): 16 µg/mL (≈ 6.72 µM)
